Values of other authors as cited in patent US20230304100A1, “METHOD OF PREDICTING THERAPEUTIC RESPONSE AND PROGNOSIS OF METASTATIC BREAST CANCER TO CHEMOTHERAPEUTIC AGENTS, AND TREATING METASTATIC BREAST CANCER” (Samsung Life Public Welfare Foundation, priority 2021, published 2023).

Tested on: premenopausal HR+/HER2− metastatic breast cancer patients
Details: Young-PEARL study

Q: For `CCCCCOC(=O)Nc1nc(=O)n([C@@H]2O[C@H](C)[C@@H](O)[C@H]2O)cc1F` [capecitabine], which “median progression-free survival (PFS)” value is on record?
A: 14.4 months
